Measured values taken from PubChem BioAssay (NCI).
Several values for one entry are separate records, joined by “and”; a condition that tells them apart may be missing. Equal values may be shown once.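 Briefly, cells in 96-well plates were exposed to five compound concentrations for 48 h, and endpoints were estimated by linear interpolation. GI50 = concentration required for 50% inhibition of growth. TGI denotes the concentration required for complete inhibition of growth.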

Columns and labels:
Assay in all cases: NCI tumour cell line growth inhibition, 48 h
TK-10 renal = system: TK-10 renal
K-562 leukemia = system: K-562 leukemia
SN12K1 renal = system: SN12K1 renal
KM12 colon = system: KM12 colon
HOP-62 NSCLC = system: HOP-62 NSCLC
DLD-1 colon = system: DLD-1 colon
HOP-92 NSCLC = system: HOP-92 NSCLC
UACC-257 melanoma = system: UACC-257 melanoma
LOX IMVI melanoma = system: LOX IMVI melanoma
HCT-116 colon = system: HCT-116 colon
PC-3 prostate = system: PC-3 prostate
HL-60(TB) leukemia = system: HL-60(TB) leukemia
SN12C renal = system: SN12C renal
SNB-75 CNS = system: SNB-75 CNS
NCI-H23 lung = system: NCI-H23 lung
A549 NSCLC = system: A549 NSCLC
LXFL 529 NSCLC = system: LXFL 529 NSCLC
P388 leukemia = system: P388 leukemia

Row | Compound | GI50 (TK-10 renal) | TGI (TK-10 renal) | GI50 (K-562 leukemia) | TGI (K-562 leukemia) | GI50 (KM12 colon) | TGI (KM12 colon) | GI50 (HOP-62 NSCLC) | TGI (HOP-62 NSCLC) | TGI (DLD-1 colon) | TGI (HOP-92 NSCLC) | GI50 (UACC-257 melanoma) | TGI (UACC-257 melanoma) | GI50 (LOX IMVI melanoma) | TGI (LOX IMVI melanoma) | GI50 (HCT-116 colon) | TGI (HCT-116 colon) | GI50 (PC-3 prostate) | TGI (PC-3 prostate) | GI50 (HL-60(TB) leukemia) | TGI (HL-60(TB) leukemia) | further results
1 | CCN(CC)CCOc1cccc2nc3c(cc12)Cn1c-3cc2c(c1=O)COC(=O)C2(O)CC (stereo unspecified) | 26.7 µM | > 100 µM | 2.53 µM | > 46.9 µM | 4.53 µM and 7.49 µM | 18.5 µM and 25.6 µM | 0.356 µM | 2.63 µM | 38.8 µM | 22.5 µM and 18.3 µM | 11 µM and 7.08 µM | 23.1 µM and 21 µM | 0.429 µM and 0.508 µM | 11.3 µM and 12.1 µM | 0.403 µM and 1.29 µM | 10.9 µM and 14.2 µM | 4.62 µM | > 100 µM | 0.304 µM | 1.95 µM | GI50 (SN12K1 renal): 1.03 µM and 1.18 µM; TGI (SN12K1 renal): 11.4 µM and 14.1 µM; GI50 (DLD-1 colon): 10.9 µM; GI50 (HOP-92 NSCLC): 5.42 µM and 4.83 µM; GI50 (SN12C renal): 0.266 µM and 0.747 µM; TGI (SN12C renal): 9.16 µM and > 41.5 µM; GI50 (SNB-75 CNS): 1.34 µM and 0.545 µM; TGI (SNB-75 CNS): 19.5 µM and 5.09 µM; GI50 (NCI-H23 lung): 0.506 µM and 0.87 µM; TGI (NCI-H23 lung): 4.19 µM and 4.86 µM; GI50 (A549 NSCLC): 0.787 µM and 2.06 µM; TGI (A549 NSCLC): 20.4 µM and 13 µM
2 | CCCCCCCCCCCC[C@@H](O)[C@H]1CC[C@H]([C@H](O)CCCC[C@H](O)CCCCC[C@@H](O)CC2=C[C@H](C)OC2=O)O1 | 3.94 µM | 6.59 µM and 15.3 µM | 0.302 µM | 7.06 µM | 1.98 µM | 5.17 µM and 12.3 µM | 3.98 µM | 5.41 µM and 10.6 µM | 11.5 µM | 6.23 µM and 9.94 µM | 0.0724 µM | 5.68 µM and 3.36 µM | 0.809 µM | 4.92 µM and 4.19 µM | 0.425 µM | 5.2 µM and 6.56 µM | 2.43 µM | 5.16 µM and 12.3 µM | 0.548 µM and < 0.0574 µM | 4.24 µM and 2.13 µM | TGI (LXFL 529 NSCLC): 10.8 µM; TGI (P388 leukemia): 3.76 µM; TGI (SN12C renal): 7.66 µM and 15.6 µM; GI50 (SNB-75 CNS): 4.02 µM; TGI (SNB-75 CNS): 7.77 µM and 10.3 µM; GI50 (NCI-H23 lung): < 0.051 µM; TGI (NCI-H23 lung): 5.8 µM and 10.2 µM; GI50 (A549 NSCLC): 1.71 µM; TGI (A549 NSCLC): 8.37 µM and 11.3 µM
